Three compounds from patent US20050165232A1, “Phenyl substituted imidaopyridines and phenyl substituted benzimidazoles” (priority 2002, published 2005) can be followed below.

Molecules are shown by their SMILES.

For assay [1], the target named is T1, adenosine A1 (Rattus norvegicus, UniProt P25099).
T1 construct: Wistar rat (ca. 275 g) vas deferens were used; from tissue; host or cells: Wistar rat vas deferens
T1 sequence (P25099 1-326): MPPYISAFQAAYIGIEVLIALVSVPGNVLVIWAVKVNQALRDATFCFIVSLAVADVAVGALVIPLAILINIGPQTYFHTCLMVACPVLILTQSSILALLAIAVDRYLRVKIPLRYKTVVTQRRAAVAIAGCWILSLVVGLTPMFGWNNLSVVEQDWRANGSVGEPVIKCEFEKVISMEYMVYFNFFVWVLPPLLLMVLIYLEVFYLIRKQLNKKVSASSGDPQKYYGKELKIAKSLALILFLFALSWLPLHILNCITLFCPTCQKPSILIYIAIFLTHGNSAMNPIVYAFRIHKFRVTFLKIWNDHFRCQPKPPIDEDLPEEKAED
Kind of assay: Rat adenosine A1 tissue assay (vas deferens). The arrangement: species or system Wistar rat. The method, then: An adenosine A1 tissue assay was performed as follows to determine antagonist versus agonist functional activity. […] The vehicle used was 0.1% DMSO, the incubation buffer used was Krebs at pH 7.4, and the incubation time was 5 min at 32° C. The administration volume was 10 μL, the bath volume was 10 mL, and the time of assessment was 5 min using an isometric (gram changes) quantitation method. The criteria for functional agonism was a ≧50% reduction of neurogenic twitch relative to CHA response. The criteria for functional antagonism was a ≧50% inhibition of CHA-induced relaxation.

Assay [2] addresses T2, adenosine A3 receptor (Rattus norvegicus, UniProt P28647).
T2 construct: expressed in transfected cells; host or cells: EBNA cells
T2 sequence (P28647 1-320): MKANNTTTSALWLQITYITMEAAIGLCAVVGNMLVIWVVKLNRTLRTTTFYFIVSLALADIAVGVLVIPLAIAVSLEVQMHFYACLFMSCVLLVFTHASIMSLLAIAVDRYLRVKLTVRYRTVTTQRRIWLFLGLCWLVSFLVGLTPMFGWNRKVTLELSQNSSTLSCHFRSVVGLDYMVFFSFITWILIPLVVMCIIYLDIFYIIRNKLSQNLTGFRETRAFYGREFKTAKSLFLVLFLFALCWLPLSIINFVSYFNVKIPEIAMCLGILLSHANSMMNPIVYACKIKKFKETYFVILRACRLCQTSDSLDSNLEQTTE
The assay is described as follows: Rat adenosine A3 receptor binding assay. The following applies: radioligand 125I AB-MECA, rat recombinant EBNA cells. How it is done:
Adenosine A3 radioligand binding was performed as follows. Rat recombinant EBNA cells were used with 1 nM ^125I AB-MECA as ligand.

Compound `OC[C@H]1O[C@@H](n2cnc3c(NC4CCCCC4)ncnc32)[C@H](O)[C@@H]1O` [CHA, N6-(cyclohexyl)adenosine] yielded an agonist reference response in assay [1] (0.3 μM) of 100%.

In assay [1] (10 nM), `CCCn1c(=O)c2[nH]c(C3CCCC3)nc2n(CCC)c1=O` [DPCPX, 8-cyclopentyl-1,3-dipropylxanthine] showed an antagonist reference response of 87%. For `CNC(=O)[C@H]1O[C@@H](n2cnc3c(NCc4ccc(N)cc4)ncnc32)[C@H](O)[C@@H]1O` [AB-MECA], the Kd in assay [2] came out at 1.3 nM.

As usually defined, the Kd is a measure of binding affinity in units of concentration.
